Entries after “also recorded” stand apart in the source; their conditions may differ.
Assays:
[1] = system: menstrual effluent-derived eSCs (ME-eSCs); test: MPA-stimulated gene expression in ME-eSCs of endometriosis cases and controls (qPCR, scRNA-seq); format: cell-based, human
Procedure: Methods: Low passage (p2-3) menstrual effluent-derived eSCs (ME-eSCs) obtained from women with confirmed endometriosis or healthy controls were stimulated with vehicle or MPA, a stable P4 analogue. qPCR and single cell RNA-seq (scRNA-seq, n=4 controls and 4 cases) were used to measure P4-induced gene expression and identify dysregulated pathways. Subcellular localization of PR isoforms and the PR chaperone protein, FKBP52, was assessed using immunofluorescent microscopy and western blotting of total, nuclear, and cytoplasmic preparations of ME-eSCs±MPA stimulation.

[2] = system: endometrial stromal cells (eSCs); test: Decidualization of menstrual effluent-derived eSCs induced by cAMP ± MPA, IGFBP1 and PRL by ELISA; format: cell-based, human; settings: for cAMP-induced decidualization (IGFBP1 and PRL production): quercetin 25 μM 4 hr before cAMP 0.5 mM for 48 hr, vs vehicle; for cAMP+MPA-induced decidualization (IGFBP1 and PRL production): control- and case-eSCs, quercetin 25 μM 4 hr before cAMP 0.5 mM + 0.1 μM MPA for 48 hr; for potentiation of decidualization: comparators tested in the same eSC system as quercetin
Procedure: Methods: eSCs were isolated from menstrual effluent (ME) obtained from healthy controls and surgically diagnosed endometriosis cases. To induce decidualization, passage 2-3 eSCs DMEM 2% MSC-FBS were treated with dibutryl-cAMP (cAMP, 0.5 mM)±10^-7 M medroxyprogesterone acetate (MPA) for 48 hr. eSCs were pre-treated with vehicle or quercetin (25 μM) 4 hr prior to decidualization. PRL and IGFBP1 protein and mRNA in the culture supernatants and cells, respectively, were assessed by ELISA and RT-qPCR, respectively. Endometrial stromal cells (eSCs) were isolated and grown in DMEM 10% MSC-FBS, PSQ, normocin. Passage 2-3 eSCs were split into 96 well plates or 6-well plates in DMEM 10% MSC-FBS. After overnight culture in DMEM 2% MSC-FBS, decidualization of eSCs was induced after exposure to vehicle or 25 μM quercetin for 4 hrs, followed by 0.5 mM cAMP±0.1 μM MPA for 48 hrs. Decidualization was assessed by measuring IGFBP1 and/or PRL levels in the culture supernatants by ELISA. Progesterone sensitivity was also assessed by measuring progesterone-induced genes. Two sample t tests (unpaired or paired) were used to determine significance. Assessment of progesterone sensitive genes eSCs were treated vehicle or 25 μM quercetin for 4h followed by veh or 0.5 mM cAMP+0.1 uM MPA for 6h; RNA was isolated; and qPCR was performed for the P4 sensitives gene: HAND2, or other P4 target genes.
Roughly 30-50% of endometriosis patient experience infertility. The cause of endometriosis and its link to infertility is not completely understood. It has been shown that endometrial stromal cells (eSCs) from patients with endometriosis show decreased decidualization, a progesterone-driven process critical for implantation. Quercetin is a flavonoid with anti-inflammatory and immunomodulatory activities. […] In addition, quercetin improves infertility in patients with polycystic ovary syndrome (PCOS). We assessed the effect of quercetin on decidualization and progesterone sensitivity using eSCs. Methods: eSCs were isolated from menstrual effluent (ME) obtained from healthy controls and surgically diagnosed endometriosis cases. To induce decidualization, passage 2-3 eSCs were treated with dibutryl-cAMP (cAMP, 0.25-0.5 mM)±10^-7M medroxyprogesterone acetate (MPA) for 48 hr. eSCs were pre-treated with vehicle or quercetin (25 μM) 4 hr prior to decidualization. PRL and IGFBP1 protein and mRNA in the culture supernatants and cells, respectively, were assessed by ELISA and RT-qPCR, respectively. Progesterone sensitivity was also assessed by measuring progesterone-induced genes, PLZF and IHH. Two sample t tests (unpaired or paired) were used to determine significance.

[3] = system: endometrial stromal cells; test: SASP protein expression in endometrial stromal cells by western blotting; format: cell-based, human; settings: quercetin 25 μM vs vehicle, DMEM 2% FBS, 2 days, confluent cells; normalised to GAPDH
Procedure: FIGS. 4A-4B: Quercetin-treatment of endometrial stromal cells reduces the senescence-associated secretory phenotype (SASP) and the expression SASP proteins. (4A) Treatment of confluent endometrial stromal cells with vehicle (Veh) vs. quercetin (25 μM, Q+) in DMEM 2% FBS for 2 days alters the expression of SASP proteins (or SASPs, IL-1β, TNF-membrane form [TNF-MF], TNF-soluble form [TNF-SF], MMP3, and Lamin B1 [LamB1*] vs. GAPDH [housekeeping protein for normalization]) by endometrial stromal cells, as determined by western blotting. Relative molecular weight markers (MWM) are shown on the left. (4B) Quantification of Veh-treated vs. Q-treated protein bands are shown in 4B. *Note: All proteins are positive SASPs (increased protein expression positively correlates with senescence), except LAMB1, which is lost with the senescence phenotype. Quercetin reduces senescence-associated secretory phenotype or SASP.

[4] = system: patients with polycystic ovary syndrome (PCOS); settings: cited from earlier work
[5] = system: endometrial implants; settings: rat model of endometriosis; cited from earlier work
[6] = system: P4 target genes (HAND2, PLZF, IHH) in endometrial stromal cells; test: Progesterone (P4) target gene expression in eSCs by qPCR after quercetin pre-treatment; format: cell-based, human; settings: control- and case-eSCs, p<0.05; for HAND2 mRNA expression (P4 target gene): quercetin 25 μM 4 h, then vehicle or 0.5 mM cAMP + 0.1 μM MPA 6 h, qPCR
Procedure: Endometrial stromal cells (eSCs) were isolated and grown in DMEM 10% MSC-FBS, PSQ, normocin. Passage 2-3 eSCs were split into 96 well plates or 6-well plates in DMEM 10% MSC-FBS. After overnight culture in DMEM 2% MSC-FBS, decidualization of eSCs was induced after exposure to vehicle or 25 μM quercetin for 4 hrs, followed by 0.5 mM cAMP±0.1 μM MPA for 48 hrs. […] Progesterone sensitivity was also assessed by measuring progesterone-induced genes. Two sample t tests (unpaired or paired) were used to determine significance. Assessment of progesterone sensitive genes eSCs were treated vehicle or 25 μM quercetin for 4h followed by veh or 0.5 mM cAMP+0.1 uM MPA for 6h; RNA was isolated; and qPCR was performed for the P4 sensitives gene: HAND2, or other P4 target genes. […] Progesterone sensitivity was also assessed by measuring progesterone-induced genes, PLZF and IHH.

[7] = ME-eSCs from cases vs. controls, qPCR
[8] = scRNA-seq, n=4 controls and 4 cases

For CC(=O)O[C@]1(C(C)=O)CC[C@H]2[C@@H]3C[C@H](C)C4=CC(=O)CC[C@]4(C)[C@H]3CC[C@@]21C [MPA, medroxyprogesterone acetate], the “MPA-stimulated IHH gene expression” value [1, 7] was “significantly blunted”, the “MPA-stimulated PLZF gene expression” value [1, 7] was “significantly blunted” and the “MPA-induced expression of CEBPD, DKK1, FABP4, MGP, and NNMT” value [1, 8] was “significantly unregulated in controls only”. For the same compound, the “MPA-induced expression of IGFBP5, MALAT1, DIO2, and KRT17” value [1, 8] was “significantly downregulated in controls only” and the “potentiation of cAMP-induced decidualization by addition of MPA” value ([2]; control-eSCs, 0.1 μM MPA with cAMP, 48 hr) was “potentiates”.

In the case of O=c1c(O)c(-c2ccc(O)c(O)c2)oc2cc(O)cc(O)c12 [Quercetin, quercetin], the “senescence-associated secretory phenotype (SASP) and expression of SASP proteins (IL-1β, TNF-MF, TNF-SF, MMP3, Lamin B1)” value [3] is given as “reduces”, the “infertility in PCOS patients” value [4] is given as “improves” and the “cAMP-induced decidualization (IGFBP1 and PRL production)” value ([2]; case-eSCs (endometriosis), p<0.05) is given as “significantly enhanced; also recorded: increased”. For the same compound, the “cAMP+MPA-induced decidualization (IGFBP1 and PRL production)” value ([2]; p<0.05) was “increased”, the “cAMP+MPA-induced decidualization (IGFBP1 and PRL production)” value ([2]; p<0.05, listed as quercetin) was “significantly enhanced; also recorded: further enhances” and the “cAMP-induced decidualization (IGFBP1 and PRL production)” value ([2]; control-eSCs, p<0.02) was “significantly enhanced; also recorded: increased”. For the same compound, the anti-inflammatory effects [5] was “exerted anti-inflammatory effects”, the “growth of endometrial implants” value [5] was “inhibited” and the “HAND2 mRNA expression (P4 target gene)” value [6] was “increases”. For the same compound, the “HAND2 mRNA expression (P4 target gene)” value ([6]; listed as quercetin) was “significantly increased over vehicle”, the “MPA-induced IHH mRNA expression” value ([6]; quercetin 25 μM vs vehicle) was “significantly increased over vehicle” and the “MPA-induced PLZF mRNA expression” value ([6]; quercetin 25 μM vs vehicle) was “significantly increased over vehicle”.

In the case of O=C(O)c1ccccc1O [SA, salicylic acid, reference compound], the potentiation of decidualization [2] is reported as “did not potentiate decidualization”.

In the case of CC(C)Cc1ccc(C(C)C(=O)O)cc1 (stereo not shown) [ibuprofen, reference compound], the potentiation of decidualization [2] is reported as “did not potentiate decidualization”.

— US20230295729A1, “METHODS FOR DETECTING AND TREATING PROGESTERONE-RESISTANT INFERTILITY” (The Feinstein Institutes for Medical Research, priority 2022, published 2023)
